# Assay results taken from patent publication EP2724723A1, “Tegaserod for use in the treatment of nerve injuries” (Universitätsklinikum Hamburg-Eppendorf, priority 2012, dated 2014).
# Columns and labels:
# [1] = test system: regenerated femoral nerves; assay: Histology of the regenerated femoral nerve; type: in vivo, C57BL/6J mice; details: 15 weeks; for myelinated axons: vehicle control 78%; for average number of axons within regenerated nerves: vehicle control 432, unsevered 608
# Protocol: Tegaserod was evaluated in a 2 mm femoral nerve defect of 12-week old C57BL/6J mice as previously described in Mehanna et al. (2009), see above. Briefly, mice were anesthetized and the femoral nerve of the left rear leg exposed. The nerve was bis-sected 3 mm proximal to the branching of the saphenous and motor branches, and the nerve ends were sutured 0.5 mm into a 3 mm polyethylene conduits with 0.58 mm inner diameter (Becton Dickinson), leaving an overall gap length of 2 mm. Conduits were filled with PuraMatrix peptide hydrogel (Becton Dickinson 354250) using 2x PBS as the gelation stimulant. Tegaserod was dissolved in the 2x PBS at concentrations of 500 nM and 5,000 nM, resulting in final concentrations of 250 nM and 2,500 nM once the PBS was combined 1:1 v/v with the PuraMatrix.
# At the end of the recovery period, femoral nerves were fixed and histology was performed to assess nerve morphology within the regenerated region 1 mm into the 2 mm gap. Animals were perfused with 4% paraformadehyde and explanted nerves were post-fixed in osmium tetroxide and embedded in resin. One and 2 µm thick sections were cut into the center of the regenerated nerve and sections were stained with 1% toluidine blue and 1% borax. Sections were imaged with a Zeiss Axiocam, using 20x, 40x, and 100x objectives and AxioVision imaging software. ImageJ software was used to calculate total nerve area, number of axons, % of myelinated axons, and g-ratio as described Mehanna et al. (2009), see above.
# [2] = test system: cerebellar granule neurons (cGNs); assay: In vitro neurite outgrowth of cerebellar granule neurons; type: cell-based, C57BL/6J mice; details: compared to control; Figure 2C, D
# Protocol: (§1) Primary cultures of cerebellar neurons or Schwann cells were prepared from cerebellum or dorsal root ganglia of 7-day-old C57BL/6J mice as described in Mehanna et al. (2009), Brain, 132 (Pt 6): 1449-62 and Loers et al. (2005), J. Neurochem., 92(6): 1463-76. Motoneurons were prepared from E14 C57BL/6J mice as described in Simova et al. (2006), Ann. Neurol., 60(4): 430-437. In brief, 48-well plates were coated with 0.01% poly-L-lysine (PLL) or poly-L-ornithine (PLO) overnight at 4°C, washed twice with water and air-dried. Directly before use, plates were washed twice with PBS, and Schwann cells, cerebellar neurons (PLL) or motoneurons (PLO) were seeded at a density of 1.25 x 10^4 (Schwann cells and motoneurons) or 2.5 x 10^4 cells (cerebellar neurons) per well in 250 µl of corresponding serum-free culture medium. Soluble organic compounds were added to the culture 1 h after seeding in increasing concentrations. After maintenance for 24 h at 37°C, cells were fixed with 2.5% glutaraldehyde and stained with 1% methylene blue/toluidine blue in 1% borax. Morphological quantification of neurite or process lengths was performed as described in Mehanna et al. (2009), see above. Schwann cell processes and neurites of cerebellar neurons with a length of at least one cell body diameter were counted and total neurite or process length per cell was determined by counting 50 cells in each of two wells per experiment. At least three independent experiments were performed for each culture. Also, the activity of tegaserod with the PSA peptide mimic and the bacterial PSA analogue, colominic acid, on neurite and process extension experiments was compared.
# 735 anti PSA antibody = assay: Screening ELISA of the NIH Clinical Collection 1 Library for organic PSA mimetics; type: binding; details: 10 µM of library compound pre-incubated with 735 antibody; repeated three times
# Protocol: To identify organic PSA mimetics the NIH Clinical Collection 1 Library was screened. PSA mimicking peptide (NTHTDPYIYPIDC; Mehanna et al., (2009); Brain 132 (Pt 6): 1449-1462.) coupled to catalase (3 µg/ml; 25 µl/well) was immobilized on the surface of 384-well flat bottom microtiter plates with high binding surface (Corning Life Sciences, Amsterdam, The Netherlands). Wells were washed with […], blocked with 1% bovine serum albumin for 1 h at room temperature. 735 anti PSA antibody (0.1 µg/ml; 25 µl/well) was incubated with PBS, PBS containing DMSO solvent control or PBS containing 10 µM of the organic compounds from the library for 1 h at room temperature and then added to the wells coated with […] coupled to catalase. As control for positive competition, 735 antibody was incubated with the PSA mimicking peptide (10 µM). After incubation for 1 h, wells were washed 10 times with PBS containing 0.05% Tween-20 (PBST), HRP-coupled secondary antibody (1:5,000 in PBS) was added for 1 h and after 10 more washes with PBST, binding of antibody was visualized by incubating wells with 25 µl of 0.4 mg/ml o-phenylenediamine dihydrochloride (Thermo Scientific) for 15 min. The reaction was stopped by addition of 25 µl 2.5 M H2SO4 and quantified using an ELISA reader (EnVision with Plateworks software, Perkin Elmer, Hamburg, Germany). […]
# [3] = test system: PSA specific monoclonal antibody 735; assay: Surface plasmon resonance competition experiment (BIAcore 3000); type: binding; details: compared to antibody not mixed with tegaserod; antibody 10 nM pre-incubated with 1-30 µM compound; Figure 1B
# Protocol: The running buffer was phosphate-buffered saline (PBS, pH 7.4). PSA mimicking peptide coupled to catalase was covalently immobilized to CM5 sensor chips (carboxymethyl dextran; GE Healthcare Europe GmbH) via primary amino groups, using standard coupling protocols (Karlsson et al. (1991); J. Immunol. Methods 145 (1-2): 229-240. In brief, the sensor surface was activated by a 7-min pulse of 0.2 M N-ethyl-N-(3-dimethylaminopropyl) carbodiimide and 50 mM N-hydroxysuccinimide. The PSA peptide solution (10 nM in 10 mM sodium acetate, pH 5.2) was then injected for 5-10 min. Ethanolamine (1 M, pH 8.5) was used to block remaining activated carboxyl groups. Ligand densities of 100-150 fmol/mm^2 were reached. Immobilized control peptide (10 nM PSA scrambled peptide coupled to catalase) was used as a reference surface. […] The data were analyzed using the BIAevaluation 3.0 software. All sensorgrams were corrected for background and bulk refractive index by subtraction of the reference.
# To confirm that tegaserod binds specifically to antibody 735, a competition experiment was performed. First, the PSA specific monoclonal antibody 735 (10 nM) was pre-incubated for 1 h at room temperature with different molar concentrations (1, 2, 5, 8, 15 and 30 µM) of tegaserod or control compound. Then the antibody/organic compound solutions were injected ([…]) to the PSA peptide-coupled chip. […]
# [4] = test system: murine cerebellar granule neurons (cGNs), Schwann cells, and motoneurons; assay: In vitro neurite/process outgrowth, statements covering all cell types; type: cell-based, C57BL/6J mice
# Protocol: as §1
structure (smiles),measurement,setting,value
"[H]/N=C(/NCCCCC)N/N=C/c1c[nH]c2ccc(OC)cc12 [tegaserod, (E)-but-2-enedioic acid; 1-[[(Z)-(5-methoxyindol-3-ylidene)methyl]amino]-2-pentylguanidine]",myelinated axons,[1]; 250 nM,88%
same,average number of axons within regenerated nerves,[1]; 250 nM,589 axons
same,myelinated axons,"[1]; 2,500 nM",83%
same,average number of axons within regenerated nerves,"[1]; 2,500 nM",434 axons
same,effect on neurite outgrowth of cGNs (in words),[2],significantly enhance neurite/process outgrowth compared to control
same,identification as organic compound that could potentially mimic PSA,735 anti PSA antibody,could potentially mimic PSA
same,disruption of the capability of mAb 735 to bind to the PSA peptide mimic bound to the chip surface,[3],80%
same,minimal effective concentration,"[4]; Mus musculus, Neuron, 24 h, dose-response curve, Figure 2A, read-out: concentration at which an effect on neurite and process extension was shown",0.001 µM
same,concentration of optimal effect on neurite and process extension,"[4]; all cell types, Figure 2A",100 nM
same,concentration of maximal stimulatory effects,[4]; neurite and process extension of neurons and Schwann cells,10 to 250 nM
same,effect of overdosing / higher concentrations (in words),[4]; neurons and Schwann cells,the stimulatory effect was reduced or even abolished
same,times more effective than colominic acid in stimulating process formation,[4]; neurons and Schwann cells,about 20 times
same,times more effective than the PSA mimicking peptide in stimulating process formation,[4]; neurons and Schwann cells,about 200 times
